# Laboratory results published in patent EP0553673A1 (priority 1992, dated 1993).
# System: Krebszellen der Zellinie BIR-M1Rk
# Assay type: cell-based, Marshall-Ratten
smiles,measurement,setting,value
COC(CCOCc1ccccc1)(CCOP(N)(=O)N(CCCl)CCCl)OC (racemic) [Beispiel 6],um den Faktor verringerte Überlebensrate der Krebszellen,pH 6,10 000
same,Toxizität,pH 7,nur eine geringe Toxizität
